# Test results as given in patent publication US20100298141A1, “SUBSTITUTED PYRIDINE N-OXIDE HERBICIDES” (E. I. DU PONT DE NEMOURS AND COMPANY, priority 2007, published 2010).
# Columns and labels:
# blackgrass = assay: Test C pre-/postemergence test; format: in vivo, Alopecurus myosuroides
# Summary of the method: (§1)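 Seeds were planted and treated preemergence with test chemical in a non-phytotoxic solvent mixture containing surfactant. Postemergence applications of the same formulation went onto plants 2 to 18 cm tall (1- to 4-leaf stage). A dash marks no test result.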
# Surinam grass = assay: Test F preemergence test; format: in vivo, Brachiaria decumbens; details: scale 0 to 100
# Summary of the method: (§2)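 Greenhouse screen: test chemical in surfactant-containing non-phytotoxic solvent applied preemergence to sown seeds or postemergence to sugarcane plants; after 14 to 21 days each species scored visually versus controls.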
# quackgrass = assay: Test F preemergence test; format: in vivo, Elytrigia repens; details: scale 0 to 100
# Summary of the method: as §2
# prickly sida = assay: Test F preemergence test; format: in vivo, Sida spinosa; details: scale 0 to 100
# Summary of the method: as §2
# common ragweed = assay: Test C pre-/postemergence test; format: in vivo, Ambrosia elation; details: 62 g ai/ha, Preemergence; scale 0 to 100
# Summary of the method: as §1
# corn = assay: Test A pre-/postemergence greenhouse test; format: in vivo, Zea mays; details: for Corn plant response rating: 0 to 100 scale
# Summary of the method: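 Greenhouse herbicide screen, pre- and postemergence in parallel. Soil: loam plus sand. Formulation: non-phytotoxic solvent mix with surfactant. Postemergence stage: one to two leaves, 2–10 cm height. Evaluation: visual injury, compared with untreated controls, about 10 days after treatment.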
# Virginia dayflower = assay: Test F preemergence test; format: in vivo, Commelina virginica; details: scale 0 to 100
# Summary of the method: as §2
# mustard = assay: Test F preemergence test; format: in vivo, Brassica nigra; details: scale 0 to 100
# Summary of the method: as §2
# broadleaf signalgrass = assay: Test F preemergence test; format: in vivo, Brachiaria platyphylla; details: scale 0 to 100
# Summary of the method: as §2
# green foxtail = assay: Test C pre-/postemergence test; format: in vivo, Setaria viridis; details: Preemergence
# Summary of the method: as §1
# kochia = assay: Test F preemergence test; format: in vivo, Kochia scoparia; details: scale 0 to 100
# Summary of the method: as §2
# bermudagrass = assay: Test F preemergence test; format: in vivo, Cynodon dactylon; details: scale 0 to 100; for Plant response rating, Bermudagrass: Preemergence
# Summary of the method: as §2
# dallisgrass = assay: Test F preemergence test; format: in vivo, Paspalum dilatatum; details: scale 0 to 100
# Summary of the method: as §2
# common mallow = assay: Test F preemergence test; format: in vivo, Malva sylvestris; details: scale 0 to 100
# Summary of the method: as §2
compound,measurement,setting,value
Cn1nc(C(F)(F)F)c(CS(=O)(=O)c2cccc[n+]2[O-])c1OCC(F)(F)F [Compound 29],Blackgrass plant response rating,"blackgrass; 62 g ai/ha, Preemergence, scale 0 to 100",100
same,"Plant response rating, Blackgrass","blackgrass; Preemergence, 31 g ai/ha, scale 0 to 100 (0 no effect, 100 complete control)",98
same,"Plant response rating (0 to 100), Blackgrass","blackgrass; Preemergence, 250 g ai/ha",100
same,Blackgrass plant response rating,"blackgrass; preemergence, 125 g ai/ha, scale 0 (no effect) to 100 (complete control)",100
same,Surinam Grass plant response rating,"Surinam grass; 62 g ai/ha, Preemergence",100
same,Surinam Grass plant response rating,"Surinam grass; 125 g ai/ha, preemergence",100
same,"Plant response rating, Surinam Grass","Surinam grass; Preemergence, 31 g ai/ha",75
same,Quackgrass plant response rating,"quackgrass; 62 g ai/ha, Preemergence",95
same,Quackgrass plant response rating,"quackgrass; 125 g ai/ha, preemergence",95
same,"Plant response rating, Quackgrass","quackgrass; Preemergence, 16 g ai/ha",0
same,"Plant response rating, Quackgrass","quackgrass; Preemergence, 31 g ai/ha",30
same,Prickly Sida plant response rating,"prickly sida; 62 g ai/ha, Preemergence",95
same,Prickly Sida plant response rating,"prickly sida; 125 g ai/ha, preemergence",100
same,"Plant response rating, Prickly Sida","prickly sida; Preemergence, 16 g ai/ha",40
same,"Plant response rating, Prickly Sida","prickly sida; Preemergence, 31 g ai/ha",95
same,Ragweed plant response rating,common ragweed,30
same,Corn plant response rating,"corn; Postemergence, 125 g ai/ha, 0 is no effect, 100 is complete control",30
same,Corn plant response rating,"corn; Postemergence, 500 g ai/ha, 0 is no effect, 100 is complete control",60
same,Corn plant response rating,"corn; Preemergence, 125 g ai/ha, 0 no effect, 100 complete control",0
same,"Plant response rating, Corn","corn; Preemergence, 500 g ai/ha, 0 to 100 scale where 0 is no effect and 100 is complete control",70
same,Dayflower plant response rating,"Virginia dayflower; 62 g ai/ha, Preemergence",100
same,Dayflower plant response rating,"Virginia dayflower; 125 g ai/ha, preemergence",100
same,"Plant response rating, Dayflower","Virginia dayflower; Preemergence, 16 g ai/ha",0
same,"Plant response rating, Dayflower","Virginia dayflower; Preemergence, 31 g ai/ha",95
same,Black Mustard plant response rating,"mustard; 62 g ai/ha, Preemergence",100
same,Black Mustard plant response rating,"mustard; 125 g ai/ha, preemergence",100
same,"Plant response rating, Black Mustard","mustard; Preemergence, 16 g ai/ha",40
same,"Plant response rating, Black Mustard","mustard; Preemergence, 31 g ai/ha",100
same,Signalgrass plant response rating,"broadleaf signalgrass; 62 g ai/ha, Preemergence",100
same,Signalgrass plant response rating,"broadleaf signalgrass; 125 g ai/ha, preemergence",100
same,"Plant response rating, Signalgrass","broadleaf signalgrass; Preemergence, 31 g ai/ha",50
same,"Foxtail, Green plant response rating","green foxtail; 62 g ai/ha, scale 0 to 100",100
same,"Plant response rating, Foxtail, Green","green foxtail; 31 g ai/ha, scale 0 to 100 (0 no effect, 100 complete control)",85
same,"Plant response rating (0 to 100), Foxtail, Green",green foxtail; 250 g ai/ha,100
same,Kochia plant response rating,"kochia; 62 g ai/ha, Preemergence",100
same,Kochia plant response rating,"kochia; 125 g ai/ha, preemergence",100
same,"Plant response rating, Kochia","kochia; Preemergence, 16 g ai/ha",0
same,"Plant response rating, Kochia","kochia; Preemergence, 31 g ai/ha",30
same,Bermudagrass plant response rating,"bermudagrass; 125 g ai/ha, preemergence",100
same,"Plant response rating, Bermudagrass",bermudagrass; 16 g ai/ha,40
same,"Plant response rating, Bermudagrass",bermudagrass; 31 g ai/ha,90
same,Dallisgrass plant response rating,"dallisgrass; 62 g ai/ha, Preemergence",100
same,Dallisgrass plant response rating,"dallisgrass; 125 g ai/ha, preemergence",100
same,"Plant response rating, Dallisgrass","dallisgrass; Preemergence, 16 g ai/ha",0
same,"Plant response rating, Dallisgrass","dallisgrass; Preemergence, 31 g ai/ha",100
same,Mallow plant response rating,"common mallow; 62 g ai/ha, Preemergence",100
same,Mallow plant response rating,"common mallow; 125 g ai/ha, preemergence",100
same,"Plant response rating, Mallow","common mallow; Preemergence, 16 g ai/ha",0
same,"Plant response rating, Mallow","common mallow; Preemergence, 31 g ai/ha",0
